In patent US6956036B1, “6-hydroxy-indazole derivatives for treating glaucoma” (Alcon, Inc., priority 2000, dated 2005):

Key:
5-HT2 receptor = target: T1, 5-HT2 receptor (Rattus norvegicus, UniProt P14842); test: 5-HT2 Functional Assay: Phosphoinositide (PI) Turnover Assay; format: cell-based; conditions: for EC50: [3H]inositol phosphates production in A7r5 rat vascular smooth muscle cells
T1 construct: A7r5 rat vascular smooth muscle cells; endogenous in cells; host or cells: A7r5 rat vascular smooth muscle cells
Experimental: 5-HT2 Functional Assay: Phosphoinositide (PI) Turnover Assay
The relative agonist activity of serotonergic compounds at the 5-HT2 receptor can be determined in vitro using the ability of the compounds to stimulate the production of [^3H]inositol phosphates in [^3H]myo-inositol-labeled A7r5 rat vascular smooth muscle cells by their ability to activate the enzyme phospholipase C. These cells are grown in culture plates, maintained in a humidified atmosphere of 5% CO2 and 95% air and fed semi-weekly with Dulbecco's modified Eagle medium (DMEM) containing 4.5 g/l glucose and supplemented with 2 mM glutamine, 10 μg/ml gentamicin, and 10% fetal bovine serum. For the purpose of conducting the phosphoinositide (PI) turnover experiments, the A7r5 cells are cultured in 24-well plates as previously [J. Pharmacol. Expt. Ther., 286, 411 (1998)]. Confluent cells are exposed for 24–30 hrs to 1.5 μCi [^3H]-myo-inositol (18.3 Ci/mmol) in 0.5 ml of serum-free medium. Cells are then rinsed once with DMEM/F-12 containing 10 mM LiCl prior to incubation with the test agent (or solvent as the control) in 1.0 ml of the same medium for 1 hr at 37° C., after which the medium is aspirated and 1 ml of cold 0.1 M formic acid added to stop the reaction. The chromatographic separation of [3H]-inositol phosphates ([^3H]-IPs) on an AG-1-X8 column is performed as previously described [J. Pharmacol. Expt. Ther. 286, 411 (1998)] with sequential washes with H2O and 50 mM ammonium formate, followed by elution of the total [^3H]-IPs fraction with 1.2 M ammonium formate containing 0.1 M formic acid. The eluate (4 ml) is collected, mixed with 15 ml scintillation fluid, and the total [^3H]-IPs determined by scintillation counting on a beta-counter. Concentration-response data are analyzed by the sigmoidal fit function of the Origin Scientific Graphics software (Microcal Software, Northampton, Mass.) to determine agonist potency (EC50 value) and efficacy (Emax). Serotonin (5-HT) is used as a positive control (standard) agonist compound and the efficacy of test compounds is compared to that of 5-HT (set at 100%). The concentration of the compound needed to stimulate the production of [^3H]-IPs by 50% of the maximum response is termed the EC50 value.

[1] = A7r5 cells, efficacy compared to that of 5-HT (set at 100%)

T1 sequence (P14842 whole entry): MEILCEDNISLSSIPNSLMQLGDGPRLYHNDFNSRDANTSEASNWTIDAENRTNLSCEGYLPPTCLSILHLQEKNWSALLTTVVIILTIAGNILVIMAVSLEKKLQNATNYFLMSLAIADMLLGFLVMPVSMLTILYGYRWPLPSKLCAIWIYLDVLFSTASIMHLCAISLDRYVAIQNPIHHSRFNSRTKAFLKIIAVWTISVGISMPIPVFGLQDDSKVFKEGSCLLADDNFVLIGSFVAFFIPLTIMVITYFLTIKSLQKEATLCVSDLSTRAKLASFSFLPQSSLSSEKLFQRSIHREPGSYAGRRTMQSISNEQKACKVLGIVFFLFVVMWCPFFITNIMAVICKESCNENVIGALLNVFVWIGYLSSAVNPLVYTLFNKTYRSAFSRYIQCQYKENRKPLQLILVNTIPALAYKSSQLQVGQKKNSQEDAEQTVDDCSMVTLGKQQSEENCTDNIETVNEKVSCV

CC(N)Cn1ncc2ccc(OC(=O)C(C)(C)C)cc21.O=C(O)/C=C/C(=O)O (centres unmarked)
melting point: 180 to 182 °C

Cc1nn(CC(C)N)c2cc(O)ccc12.O=C(O)/C=C/C(=O)O (centres unmarked) [Example 2, 1-(2-Aminopropyl)-3-methyl-1H-indazol-6-ol Fumarate]
Emax (5-HT2 receptor; [1]): 87% | EC50 (5-HT2 receptor): 483 nM | melting point: 166 to 168 °C

CC(N)Cn1nc(Cl)c2ccc(O)cc21 (centres unmarked) [Example 6, 1-(2-Aminopropyl)-3-chloro-1H-indazol-6-ol]
Emax (5-HT2 receptor; [1]): 84% | EC50 (5-HT2 receptor): 1050 nM

COc1ccc2c(Cl)nn(CC(C)N)c2c1 (centres unmarked) [Example 5, 2-(3-Chloro-6-methoxy-indazol-1-yl)-1-methyl-ethylamine]
Emax (5-HT2 receptor; [1]): 64% | EC50 (5-HT2 receptor): 541 nM

CC(N)Cc1c[nH]c2ccc(O)cc12 (stereo not drawn) [α-Methylserotonin, reference compound]
Efficacy (Emax, %) (5-HT2 receptor; [1]): 104%

COc1ccc2cnn(CC(C)N)c2c1 (centres unmarked) [Example 4, 2-(6-Methoxy-indazol-1-yl)-1-methyl-ethylamine]
Emax (5-HT2 receptor; [1]): 73% | EC50 (5-HT2 receptor): 243 nM

COc1ccc2c(C)nn(CC(C)N)c2c1.O=C(O)/C=C/C(=O)O (centres unmarked) [Example 1, 2-(6-Methoxy-3-methyl-indazol-1-yl)-1-methylethylamine Fumarate]
Emax (5-HT2 receptor; [1]): 71% | EC50 (5-HT2 receptor): 578 nM | melting point: 150 to 152 °C
